Assay results reported in ChEMBL document CHEMBL1131677, “Synthesis and biological evaluation of substituted 4-(OBz)phenylalanine derivatives as novel N-type calcium channel blockers” (Bioorg Med Chem Lett, 1999).

target: Voltage-dependent N-type calcium channel subunit alpha-1B (Homo sapiens, UniProt Q00975); experiment: In vitro N-type [Ca2+] channel blocking potency in IMR-32 human neuroblastoma cells; assay type: functional, cell-based
Sequence (Q00975 whole entry): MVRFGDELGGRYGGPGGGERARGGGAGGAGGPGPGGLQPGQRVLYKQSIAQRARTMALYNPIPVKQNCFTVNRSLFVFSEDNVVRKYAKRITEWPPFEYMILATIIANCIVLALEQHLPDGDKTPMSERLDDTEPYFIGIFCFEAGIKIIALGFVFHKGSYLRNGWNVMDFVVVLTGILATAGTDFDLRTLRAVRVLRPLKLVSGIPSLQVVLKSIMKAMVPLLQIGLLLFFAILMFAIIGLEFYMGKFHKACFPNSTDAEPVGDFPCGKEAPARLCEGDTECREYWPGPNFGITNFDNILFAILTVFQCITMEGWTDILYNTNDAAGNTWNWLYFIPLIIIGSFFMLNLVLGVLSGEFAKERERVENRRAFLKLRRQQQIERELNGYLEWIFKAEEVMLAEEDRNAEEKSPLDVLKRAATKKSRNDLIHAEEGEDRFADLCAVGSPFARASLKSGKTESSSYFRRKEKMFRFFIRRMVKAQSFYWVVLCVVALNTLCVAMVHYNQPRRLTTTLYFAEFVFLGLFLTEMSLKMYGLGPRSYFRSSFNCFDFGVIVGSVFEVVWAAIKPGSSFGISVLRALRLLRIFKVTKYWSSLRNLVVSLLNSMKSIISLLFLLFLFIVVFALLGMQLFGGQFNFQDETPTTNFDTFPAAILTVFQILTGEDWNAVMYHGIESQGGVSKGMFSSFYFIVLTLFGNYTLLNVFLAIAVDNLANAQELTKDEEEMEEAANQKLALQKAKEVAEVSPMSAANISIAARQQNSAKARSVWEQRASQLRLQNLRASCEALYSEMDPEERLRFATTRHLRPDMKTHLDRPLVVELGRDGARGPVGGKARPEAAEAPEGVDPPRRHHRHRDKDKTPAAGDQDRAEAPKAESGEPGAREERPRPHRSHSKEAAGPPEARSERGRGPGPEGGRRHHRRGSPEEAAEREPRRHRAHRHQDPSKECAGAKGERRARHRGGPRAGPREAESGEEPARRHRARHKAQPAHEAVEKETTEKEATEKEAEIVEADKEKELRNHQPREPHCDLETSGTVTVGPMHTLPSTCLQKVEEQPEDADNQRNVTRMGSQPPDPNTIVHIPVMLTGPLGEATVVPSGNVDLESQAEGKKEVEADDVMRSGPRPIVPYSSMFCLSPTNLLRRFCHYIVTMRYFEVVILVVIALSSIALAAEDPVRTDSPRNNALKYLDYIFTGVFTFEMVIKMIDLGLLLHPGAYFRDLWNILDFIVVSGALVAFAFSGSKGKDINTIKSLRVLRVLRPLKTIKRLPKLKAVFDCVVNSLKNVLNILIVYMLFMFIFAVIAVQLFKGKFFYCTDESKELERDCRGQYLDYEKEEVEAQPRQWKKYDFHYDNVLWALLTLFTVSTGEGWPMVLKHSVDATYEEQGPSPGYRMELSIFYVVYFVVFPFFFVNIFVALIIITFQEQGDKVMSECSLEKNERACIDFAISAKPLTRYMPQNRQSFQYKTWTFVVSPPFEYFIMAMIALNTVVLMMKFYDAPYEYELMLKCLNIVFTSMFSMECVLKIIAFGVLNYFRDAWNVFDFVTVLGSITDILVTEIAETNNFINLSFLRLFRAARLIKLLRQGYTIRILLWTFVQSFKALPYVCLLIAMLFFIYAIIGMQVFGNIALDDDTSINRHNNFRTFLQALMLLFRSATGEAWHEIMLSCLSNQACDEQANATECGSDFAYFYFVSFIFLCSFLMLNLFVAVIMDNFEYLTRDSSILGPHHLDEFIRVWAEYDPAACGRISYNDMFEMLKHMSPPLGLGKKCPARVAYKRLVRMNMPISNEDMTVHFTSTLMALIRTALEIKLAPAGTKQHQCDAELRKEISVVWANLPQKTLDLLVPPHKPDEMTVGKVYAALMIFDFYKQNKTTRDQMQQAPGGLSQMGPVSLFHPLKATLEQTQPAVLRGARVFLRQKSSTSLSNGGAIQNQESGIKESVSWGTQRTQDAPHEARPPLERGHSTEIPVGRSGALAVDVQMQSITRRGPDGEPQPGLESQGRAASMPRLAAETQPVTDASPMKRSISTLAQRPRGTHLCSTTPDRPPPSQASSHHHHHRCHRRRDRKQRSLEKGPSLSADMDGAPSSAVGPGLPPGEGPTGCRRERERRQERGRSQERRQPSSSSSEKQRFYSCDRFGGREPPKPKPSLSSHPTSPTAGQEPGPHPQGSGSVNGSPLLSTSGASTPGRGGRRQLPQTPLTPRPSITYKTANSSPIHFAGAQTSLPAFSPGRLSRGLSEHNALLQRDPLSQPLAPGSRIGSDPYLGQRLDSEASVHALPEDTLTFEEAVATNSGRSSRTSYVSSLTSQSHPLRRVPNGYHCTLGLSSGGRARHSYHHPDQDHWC

Question: For `CC(C)CCN1C(C)CCCC1C(=O)N[C@@H](Cc1ccc(OC(=O)c2ccccc2)cc1)C(=O)OC(C)(C)C` (some centres not stated), which IC50 is on record?
Answer: Its IC50 is 320 nM.

Question: Which IC50 does the source give for `CC(C)CCN1CCC(C(C)C)CC1C(=O)N[C@@H](Cc1ccc(OC(=O)c2ccccc2)cc1)C(=O)OC(C)(C)C` (some centres not stated) here?
Answer: Its IC50 is 490 nM.

Question: For `CC(C)CCN1CCCCC1C(=O)N[C@@H](Cc1ccc(OC(=O)c2ccccc2)cc1)C(=O)OC(C)(C)C` (some centres not stated), which IC50 is on record?
Answer: The IC50 was 1000 nM.

Question: `CC(C)CCN1CCC(C)CC1C(=O)N[C@@H](Cc1ccc(OC(=O)c2ccccc2)cc1)C(=O)OC(C)(C)C` (some centres not stated) was tested. Which IC50 did it give?
Answer: The IC50 was 780 nM.

Question: `CC(C)CCN1CCCC(C)C1C(=O)N[C@@H](Cc1ccc(OC(=O)c2ccccc2)cc1)C(=O)OC(C)(C)C` (some centres not stated) was tested. Which IC50 did it give?
Answer: The IC50 was 1100 nM.

Question: How did the IC50 turn out when `CC(C)CCN(C)CC(=O)N[C@@H](Cc1ccc(OC(=O)c2ccccc2)cc1)C(=O)NC(C)(C)C` was run?
Answer: Its IC50 is 1600 nM.

Question: How did the IC50 turn out when `CC(C)CCN(C)[C@H](C(=O)N[C@@H](Cc1ccc(OC(=O)c2ccccc2)cc1)C(=O)NC(C)(C)C)C(C)C` was run?
Answer: Its IC50 is 830 nM.

Question: With `CC(C)CCN1CCC(C(=O)N[C@@H](Cc2ccc(OC(=O)c3ccccc3)cc2)C(=O)OC(C)(C)C)CC1` as the molecule, how does the IC50 read?
Answer: Its IC50 is 1500 nM.

Question: How did the IC50 turn out when `CC(C)CCN[C@@H](CC(C)C)C(=O)N[C@@H](Cc1ccc(OC(=O)c2ccccc2)cc1)C(=O)NC(C)(C)C` was run?
Answer: Its IC50 is 300 nM.

Question: How did the IC50 turn out when `CC(C)CCN1CCN(C)CC1C(=O)N[C@@H](Cc1ccc(OC(=O)c2ccccc2)cc1)C(=O)OC(C)(C)C` (some centres not stated) was run?
Answer: Its IC50 is 1000 nM.

Question: How did the IC50 turn out when `CC(C)CCN[C@@H](CC(C)C)C(=O)N[C@@H](Cc1ccc(OC(=O)c2ccccc2)cc1)C(=O)OC(C)(C)C` was run?
Answer: Its IC50 is 400 nM.

Question: Which IC50 does the source give for `CC(C)CCN(C)[C@H](CC(C)C)C(=O)N[C@@H](Cc1ccc(OC(=O)c2ccccc2)cc1)C(=O)NC(C)(C)C` here?
Answer: The IC50 was 370 nM.
